# Reference: PubChem BioAssay AID1259407 (Chemical Carcinogenesis Research Information System (CCRIS), 2018)
# Active and inactive are the calls of the source. No rule for the calls is given here.
# System: CCRIS mutagenicity, Ames/micronucleus/aberration tests
# Experiment: CCRIS mutagenicity studies
# [1] = Test System: AMES SALMONELLA TYPHIMURIUM, Strain/Indicator: TA98, Metabolic Activation: NONE, Method: STANDARD PLATE
# [2] = Test System: AMES SALMONELLA TYPHIMURIUM, Strain/Indicator: TA98, Metabolic Activation: RAT, LIVER, S-9, AROCLOR 1254, Method: STANDARD PLATE
# [3] = Test System: AMES SALMONELLA TYPHIMURIUM, Strain/Indicator: TA100, Metabolic Activation: NONE, Method: STANDARD PLATE
# [4] = Test System: AMES SALMONELLA TYPHIMURIUM, Strain/Indicator: TA100, Metabolic Activation: RAT, LIVER, S-9, AROCLOR 1254, Method: STANDARD PLATE
# [5] = Test System: AMES SALMONELLA TYPHIMURIUM, Strain/Indicator: TA98, Metabolic Activation: NONE, Method: PREINCUBATION
# [6] = Test System: AMES SALMONELLA TYPHIMURIUM, Strain/Indicator: TA100, Metabolic Activation: NONE, Method: PREINCUBATION
# [7] = Test System: AMES SALMONELLA TYPHIMURIUM, Strain/Indicator: TA1537, Metabolic Activation: NONE, Method: PREINCUBATION
smiles,measurement,setting,value
CCCCCCCCCCCCCC(=O)O[C@@H]1[C@@H](C)[C@@]2(O)[C@@H](C=C(CO)C[C@]3(O)C(=O)C(C)=C[C@@H]23)[C@@H]2C(C)(C)[C@]12OC(C)=O,mutagenic call,"End Point: IN VITRO CHROMOSOMAL ABERRATIONS, Test System: CHL/IU CELLS, Metabolic Activation: NONE",inactive; negative
same,mutagenic call,"End Point: IN VITRO MICRONUCLEUS, Test System: CHL/IU CELLS, Metabolic Activation: NONE",inactive; negative
O=C1c2ccc3ccccc3c2-c2c1ccc1ccccc21,mutagenic call,[1],inactive; negative
same,mutagenic call,[2],active; positive
same,mutagenic call,[3],inactive; negative
same,mutagenic call,[4],active; positive
O=C(Cl)C(Cl)Cl,mutagenic call,"Test System: AMES SALMONELLA TYPHIMURIUM, Strain/Indicator: TA98, Metabolic Activation: HAMSTER, LIVER, S-9, AROCLOR 1254 (30%), Method: PREINCUBATION",inactive; negative
same,mutagenic call,[5],inactive; negative
same,mutagenic call,"Test System: AMES SALMONELLA TYPHIMURIUM, Strain/Indicator: TA98, Metabolic Activation: RAT, LIVER, S-9, AROCLOR 1254 (30%), Method: PREINCUBATION",inactive; negative
same,mutagenic call,"Test System: AMES SALMONELLA TYPHIMURIUM, Strain/Indicator: TA100, Metabolic Activation: HAMSTER, LIVER, S-9, AROCLOR 1254 (30%), Method: PREINCUBATION",inactive; negative
same,mutagenic call,"Test System: AMES SALMONELLA TYPHIMURIUM, Strain/Indicator: TA100, Metabolic Activation: NONE, Method: BAG VAPORIZATION",active; positive
same,mutagenic call,[6],active; positive
same,mutagenic call,"Test System: AMES SALMONELLA TYPHIMURIUM, Strain/Indicator: TA100, Metabolic Activation: RAT, LIVER, S-9, AROCLOR 1254 (30%), Method: PREINCUBATION",inactive; negative
same,mutagenic call,"Test System: AMES SALMONELLA TYPHIMURIUM, Strain/Indicator: TA100, Metabolic Activation: RAT, LIVER, S-9, AROCLOR 1254, Method: BAG VAPORIZATION",inactive; negative
O=C1c2cccc(O)c2C(=O)c2c(O)cccc21,mutagenic call,[1],inactive; negative
same,mutagenic call,[2],inactive; negative
same,mutagenic call,[3],inactive; negative
same,mutagenic call,[4],inactive; negative
same,mutagenic call,"Test System: AMES SALMONELLA TYPHIMURIUM, Strain/Indicator: TA102, Metabolic Activation: NONE, Method: PREINCUBATION",active; positive
same,mutagenic call,"Test System: AMES SALMONELLA TYPHIMURIUM, Strain/Indicator: TA102, Metabolic Activation: NONE, Method: STANDARD PLATE",inactive; negative
same,mutagenic call,"Test System: AMES SALMONELLA TYPHIMURIUM, Strain/Indicator: TA102, Metabolic Activation: RAT LIVER S-9, AROCLOR 1254, Method: STANDARD PLATE",active; positive
same,mutagenic call,"Test System: AMES SALMONELLA TYPHIMURIUM, Strain/Indicator: TA102, Metabolic Activation: RAT, LIVER, S-9, AROCLOR 1254, Method: STANDARD PLATE",active; positive
same,mutagenic call,"Test System: AMES SALMONELLA TYPHIMURIUM, Strain/Indicator: TA102, Metabolic Activation: RAT, LIVER, S-9, PHENOBARBITONE AND BETA-NAPHTHOFLAVONE, Method: STANDARD PLATE",active; positive
same,mutagenic call,"Test System: AMES SALMONELLA TYPHIMURIUM, Strain/Indicator: TA102, Metabolic Activation: RAT, LIVER, S-9, Method: PREINCUBATION",active; positive
same,mutagenic call,"Test System: AMES SALMONELLA TYPHIMURIUM, Strain/Indicator: TA102, Metabolic Activation: S-9, Method: STANDARD PLATE",active; positive
same,mutagenic call,"Test System: AMES SALMONELLA TYPHIMURIUM, Strain/Indicator: TA1535, Metabolic Activation: NONE, Method: STANDARD PLATE",inactive; negative
same,mutagenic call,"Test System: AMES SALMONELLA TYPHIMURIUM, Strain/Indicator: TA1535, Metabolic Activation: RAT, LIVER, S-9, AROCLOR 1254, Method: STANDARD PLATE",inactive; negative
same,mutagenic call,[7],active; positive
same,mutagenic call,"Test System: AMES SALMONELLA TYPHIMURIUM, Strain/Indicator: TA1537, Metabolic Activation: NONE, Method: STANDARD PLATE",active; positive
same,mutagenic call,"Test System: AMES SALMONELLA TYPHIMURIUM, Strain/Indicator: TA1537, Metabolic Activation: RAT, LIVER, S-9, AROCLOR 1254, Method: STANDARD PLATE",active; positive
same,mutagenic call,"Test System: AMES SALMONELLA TYPHIMURIUM, Strain/Indicator: TA1537, Metabolic Activation: RAT, LIVER, S-9, Method: PREINCUBATION",active; positive
same,mutagenic call,"Test System: AMES SALMONELLA TYPHIMURIUM, Strain/Indicator: TA1538, Metabolic Activation: NONE, Method: STANDARD PLATE",inactive; negative
same,mutagenic call,"Test System: AMES SALMONELLA TYPHIMURIUM, Strain/Indicator: TA1538, Metabolic Activation: RAT, LIVER, S-9, AROCLOR 1254, Method: STANDARD PLATE",inactive; negative
same,mutagenic call,"Test System: AMES SALMONELLA TYPHIMURIUM, Strain/Indicator: TA2638, Metabolic Activation: S-9, Method: STANDARD PLATE",active; positive
same,mutagenic call,"Test System: E. COLI, Strain/Indicator: WP2 (PKM101), Metabolic Activation: RAT, LIVER, S-9, PHENOBARBITONE AND BETA-NAPHTHOFLAVONE, Method: STANDARD PLATE",inactive; negative
same,mutagenic call,"Test System: E. COLI, Strain/Indicator: WP2 (PKM101), Metabolic Activation: S-9, Method: STANDARD PLATE",inactive; negative
same,mutagenic call,"Test System: E. COLI, Strain/Indicator: WP2 UVRA (PKM101), Metabolic Activation: RAT, LIVER, S-9, PHENOBARBITONE AND BETA-NAPHTHOFLAVONE, Method: STANDARD PLATE",inactive; negative
same,mutagenic call,"Test System: E. COLI, Strain/Indicator: WP2 UVRA (PKM101), Metabolic Activation: S-9, Method: STANDARD PLATE",inactive; negative
Oc1cc(O)c2cc(O)c(-c3cc(O)c(O)c(O)c3)[o+]c2c1,mutagenic call,[5],inactive; negative
same,mutagenic call,"Test System: AMES SALMONELLA TYPHIMURIUM, Strain/Indicator: TA98, Metabolic Activation: RAT, LIVER, S-9, AROCLOR 1254, Method: PREINCUBATION",inactive; negative
same,mutagenic call,[6],inactive; negative
same,mutagenic call,"Test System: AMES SALMONELLA TYPHIMURIUM, Strain/Indicator: TA100, Metabolic Activation: RAT, LIVER, S-9, AROCLOR 1254, Method: PREINCUBATION",inactive; negative
same,mutagenic call,"Test System: AMES SALMONELLA TYPHIMURIUM, Strain/Indicator: TA1535, Metabolic Activation: NONE, Method: PREINCUBATION",inactive; negative
same,mutagenic call,"Test System: AMES SALMONELLA TYPHIMURIUM, Strain/Indicator: TA1535, Metabolic Activation: RAT, LIVER, S-9, AROCLOR 1254, Method: PREINCUBATION",inactive; negative
same,mutagenic call,[7],inactive; negative
same,mutagenic call,"Test System: AMES SALMONELLA TYPHIMURIUM, Strain/Indicator: TA1537, Metabolic Activation: RAT, LIVER, S-9, AROCLOR 1254, Method: PREINCUBATION",inactive; negative
same,mutagenic call,"Test System: AMES SALMONELLA TYPHIMURIUM, Strain/Indicator: TA1538, Metabolic Activation: NONE, Method: PREINCUBATION",inactive; negative
same,mutagenic call,"Test System: AMES SALMONELLA TYPHIMURIUM, Strain/Indicator: TA1538, Metabolic Activation: RAT, LIVER, S-9, AROCLOR 1254, Method: PREINCUBATION",inactive; negative
